How the values were obtained:
PC3 cells = assay: subG1 (hypodiploid) fraction by flow cytometry, PC3 cells; assay type: cell-based
Description: Trypsinized cells were resuspended in PBS at 10^6 cells/ml. Cells were then fixed by addition of ice-cold 70% ethanol. Ethanol-fixed cells were kept overnight at 4° C. before staining. Cells were pelleted and washed twice with PBS. Cell pellets were incubated for an hour at room temperature with mouse anti-MPM-2 antibody (Millipore, Mass., USA), followed by 1 h incubation with Alexa-488 anti-mouse secondary antibody (Life Technologies, NY, USA). Finally cells were washed, pelleted and resuspended in propidium iodide-containing isotonic buffer (0.1 mg/mL) and 0.5% Triton X-100. Cell cycle distribution was determined by flow cytometry using an LSR Fortessa Flow cytometer (BD Biosciences, CA, USA) and analyzed using Flowjo software (Tree Star, OR, USA). […] The duration, highest degree, and rapidity of onset of MA varied between drugs, drug concentrations, and cell lines (FIGS. 2A, 2B). In general, the maximum MA achieved was less pronounced in Nos- and PJ-treated cells (FIGS. 2A, 2B). Drug-induced onset of MA was corroborated by substantial increases in cyclin B1 levels in all cell lines (FIG. 2C). […] Instances where the subG1 fraction was elevated without cleaved caspase-3 may either represent caspase-independent cell death or the presence of hypodiploid cells whose fate is unclear.

[1] = system: adult human dermal fibroblasts (HDF); assay: subG1 (hypodiploid) fraction by flow cytometry, HDFs; assay type: cell-based
231 cells = assay: Centrosome amplification (CA) by microscopy, 231 cells; assay type: cell-based; settings: for maximum extent of CA in mitotic cells: over 24 h
Description: Consequently, CA was assessed in cultures treated with different concentrations of declustering drugs for 6, 12, 18, or 24 h and untreated controls via microscopy. […] The peak percent CA detected over 24 h is shown in FIG. 6 (only statistically significant (P<0.05) increases over control values are represented in the Figures). Representative confocal micrographs of CA in interphase and mitotic cells, both control and drug treated, are depicted in FIG. 7. […] To better understand the “potency” of drug-induced CA with time, the average fold change in CA over controls over 24 h was assessed (FIG. 5A), whereby the extent of CA across time points (i.e., 6, 12, 18, and 24 h) was averaged and then divided by the extent of CA in control (i.e., 0 h). […] For Nos and BN, there was no major difference in CA levels in interphase versus mitotic cells.

[2] = system: human dermal fibroblasts (HDFs); assay: Centrosome amplification (CA) by microscopy, HDFs; assay type: cell-based
Description: (§1) Consequently, CA was assessed in cultures treated with different concentrations of declustering drugs for 6, 12, 18, or 24 h and untreated controls via microscopy. Centrosomes were identified by γ-tubulin and centrin-2 colocalization at discrete foci. […] The peak percent CA detected over 24 h is shown in FIG. 6 (only statistically significant (P<0.05) increases over control values are represented in the Figures). Representative confocal micrographs of CA in interphase and mitotic cells, both control and drug treated, are depicted in FIG. 7. No significant correlations between the degree of CA (FIG. 5A) and the expression levels of PLK4, Cyclin E, and Aurora A were found (FIG. 4).
To determine whether the CA-inducing activity of declustering drugs is restricted to cancer cells, two non-malignant cell lines, mammary fibrocystic (MCF10A) cells and adult human dermal fibroblasts were treated with these drugs. Neither one of RBN, GF or PJ induced CA or cell death (Table 8) in these cell lines. […] In comparison, 10 and 25 μM RBN increased peak CA over controls in interphase cells (p<0.001 and p=0.001, respectively), with the lower concentration dramatically augmenting peak CA to 56% of cells versus 15% for the higher dose (FIG. 9B). Only 10 but not 25 μM RBN increased the extent of CA in mitotic cells, and this upregulation was only slight (10%, p=0.041).

231, HeLa and PC3 cells = assay: Centrosome amplification (CA) by microscopy, all cancer cell lines tested; assay type: cell-based
Description: as §1
To better understand the “potency” of drug-induced CA with time, the average fold change in CA over controls over 24 h was assessed (FIG. 5A), whereby the extent of CA across time points (i.e., 6, 12, 18, and 24 h) was averaged and then divided by the extent of CA in control (i.e., 0 h). All of the drugs at least doubled the peak extent of CA in all cell lines tested (FIG. 5A), although the final extent of CA could be small or large in magnitude depending on the initial centrosomal burden as shown in FIG. 4. […] The extent of CA was less in interphase cells, with maximum values of 31% and 87% for 10 and 25 μM RBN (FIG. 6A). […]

HDFs and MCF10A cells = assay: Spindle multipolarity (MP) in non-malignant cell lines; assay type: cell-based
[3] = system: human ovarian cancer xenografts; settings: nude mice carrying human ovarian cancer xenografts; cited from earlier work

reduced bromonoscapine [RBN]
Peak subG1 percent over 48 h (PC3 cells; 10 μM): 80.7%
maximum subG1 fraction relative to control (PC3 cells; 10 μM): 8 × control
Peak subG1 percent over 48 h (PC3 cells; 25 μM): 73.0%
Peak subG1 percent over 48 h ([1]; 10 μM): 35.9%
Peak subG1 percent over 48 h ([1]; 25 μM): 39.9%
change of peak CA extent over control (231 cells; 25 μM): only slightly more than doubled the peak CA extent
final extent of CA (231 cells; 25 μM): around 90%
maximum extent of CA in interphase cells (231 cells; 10 μM): 31%
maximum extent of CA in interphase cells (231 cells; 25 μM): 87%
fold increase of CA over controls, mitotic cells (231 cells; 10 μM): ~2.5 fold
maximum extent of CA in mitotic cells (231 cells; 10 μM): 56%
fold increase of CA over controls, mitotic cells (231 cells; 25 μM): ~2.0 fold
maximum extent of CA in mitotic cells (231 cells; 25 μM): 96%
peak CA in interphase cells ([2]; 10 μM): 56%
peak CA in interphase cells ([2]; 25 μM): 15%
extent of CA in mitotic cells ([2]; mitotic, 10 μM): 10%
induction of CA (231, HeLa and PC3 cells): induced CA in all three cell lines
induction of MP over control levels (HDFs and MCF10A cells): significantly induce MP over control levels
toxicity in normal tissues [3]: toxicity was not detected in normal tissues
tumor progression [3]: inhibited tumor progression

Source: patent US20150309031A2, “COMPOSITIONS AND METHODS FOR PROGNOSIS AND TREATMENT OF CANCER” (NOVAZOI THERANOSTICS, priority 2013, published 2015)
